Legend:
ELOVL2 promoter [1] = test: ELOVL2 promoter methylation by MeDIP followed by qPCR in 5-Aza-dc treated WI-38 cells; type: cell-based, human; conditions: WI-38 fibroblasts, 2 μM for 2 days followed by 5 days of culture without the compound; MeDIP-qPCR vs untreated control (FIG. 2A)
Protocol: (§1) The effect of the ELOVL2 promoter methylation level on ELOVL2 expression was tested. WI-38 fibroblasts were treated with 5-Aza-2′-deoxycytidine (5-Aza-dc), a cytidine analog that inhibits DNA methyltransferase. The cells were treated for 2 days with 2 μM 5-Aza-dc followed by 5 days of culture without the compound. At the end of experiment, the expression of ELOVL2 was measured by qRT-PCR.
(§2) WI-38 and IMR-90 human fibroblasts were cultured in EMEM (ATCC) supplemented with 10% fetal bovine serum (Omega) and 1% penicillin/streptomycin (Gibco), and kept in a humidified incubator at 5% CO2 and 37° C. Confluence was calculated via ImageJ imaging software, including 3 fields of view per sample (10×). Upon confluence, cells were split and seeded at a 1:3 ratio. Population doublings (PD) were calculated by cell count. Knockdown lentivirus was generated using MISSION shRNA (Sigma) according to the manufacturer's instructions. 5-Aza-2′-deoxycitidine was purchased from TSZ Chem (CAS #2353-33-5), and dissolved in cell culture medium at a concentration of 2 μM. Cells were treated for a period of 48 hours. The medium was then replaced with regular cell culture medium, and the cells were cultured for 5 more days.
(§3) DNA and RNA were isolated from human fibroblasts and mouse tissues with TRIzol (Ambion) according to manufacturer's instructions. […]

ELOVL2 methylation = test: Human clinical use example: ELOVL2 methylation in intravitreal fluid after intravitreal decitabine; type: in vivo
Protocol: (§4) A person with bilateral, dry age-related macular degeneration (AMD) is seen in an ophthalmology clinic. They are otherwise healthy. They consent to an experimental study comparing demethylation therapy verses control. At baseline both eyes show a similar level of AMD as evidenced by clinical assessments for visual acuity, size of geographic atrophy as measured by autofluorescence, optical coherence tomography, and scotopic response on electroretinography. The patient is treated with 100 uL of decitabine (20 uM) formulated as a sterile, isotonic, pH buffered solution administered by intravitreal injection in their left eye (active treatment). They receive 100 ul of the same sterile, isotonic, pH buffered solution but without decitabine administered by intravitreal injection in their right eye (control treatment). Immediately following the administration of the active and control treatments, a sample of intravitreal fluid is withdrawn from each eye for baseline measurements of ELOVL2 expression and methylation level. It is observed that ELOVL2 is hypermethylated to a similar extent in both eyes. The levels of ELOVL2 expression are also similar and a low level of expression is observed in both eyes. […]
(§5) A person with dry age-related macular degeneration (AMD) with Geographic Atrophy is seen in an ophthalmology clinic. Their vision as assessed by scotopic response is declining. […]

ELOVL2 expression [2] = test: ELOVL2 expression by qRT-PCR in 5-Aza-dc treated WI-38 cells; type: cell-based, human; conditions: WI-38 fibroblasts, 2 μM for 2 days followed by 5 days without the compound; qRT-PCR vs untreated control (FIG. 2B)
Protocol: as §1, §2, §3

mouse eyes = test: Scotopic ERG response in mouse eyes after intraocular injection; type: in vivo; conditions: 1 μL of 2 μM intraocular every other week for 2 months from age 10 months, vs PBS eye (FIG. 5C, FIG. 13)
Protocol: (§6) Finally, it was investigated whether the aging characteristics in mouse eyes could be reverted by DNA demethylation, including the ELOVL2 promoter. To do that, each mouse was injected with 1 μL of 2 μM 5-Aza-dc in one eye and 1 μL of PBS in the other eye, every other week over a period of 2 months starting at age of 10 months. It was found, using the MeDIP method, that methylation of the ELOVL2 promoter decreased after treatment (FIG. 5A).
(§7) All animal procedures were conducted with the approval of the Institutional Animal Care Committee at the University of California, San Diego. C57BL/6N mouse zygotes were injected with CRISPR-Cas9 constructs. Oligos were injected into the cytoplasm of the zygotes at the pronuclei stage. Mice were housed on static racks in a conventional animal facility, and were fed ad libitum with Teklad Global 2020X diet. For the 5-Aza-dc injection study, mice were anesthetized by intraperitoneal injection of ketamine/xylazine (100 mg/kg and 10 mg/kg, respectively), and given an analgesic eye drop of Proparacaine (0.5%, Bausch & Lomb). Animals were intraocularly injected with 1 μL of PBS in one eye, and 1 μL of 2 μM 5-Aza-dc dissolved in PBS in the contralateral eye, every other week over a period of 2 months.
Electroretinograms (ERGs) were performed following a previously reported protocol. […]

ELOVL2 promoter [3] = test: ELOVL2 methylation by MeDIP in mouse retinas after intraocular injection; type: in vivo; conditions: mouse retina, 1 μL of 2 μM intraocular every other week for 2 months from age 10 months, vs PBS eye; MeDIP (FIG. 5A)
Protocol: as §6
(§8) DNA and RNA were isolated from human fibroblasts and mouse tissues with TRIzol (Ambion) according to manufacturer's instructions. RNA was converted to cDNA with iScript cDNA Synthesis Kit (Bio-Rad). qPCR was performed using SsoAdvanced Universal SYBR Green Supermix (Bio-Rad).
Methylated DNA Immunoprecipitation (MeDIP) was performed by shearing 1 μg DNA by Bioruptor (Diagenode) for 8 cycles on the high setting, each cycle consisting of 30 seconds on and 30 seconds off. Sheared DNA was denatured, incubated with 1 μg 5 mC antibody MABE146 (Millipore) for 2 hours, then with SureBeads protein G beads (Bio-Rad) for 1 hour. After washing, DNA was purified with QIAquick PCR Purification Kit (Qiagen). qPCR was then performed as above.
All animal procedures were conducted with the approval of the Institutional Animal Care Committee at the University of California, San Diego. C57BL/6N mouse zygotes were injected with CRISPR-Cas9 constructs. […]

ELOVL2 expression [4] = test: ELOVL2 expression by qPCR in mouse retinas after intraocular injection; type: in vivo; conditions: mouse retina, 1 μL of 2 μM intraocular every other week for 2 months from age 10 months, vs PBS eye; qPCR (FIG. 5B)
Protocol: as §6, §8
as §7, with “Animals were intraocularly injected with 1 μL of PBS in one eye, and 1 μL of 2 μM 5-Aza-dc dissolved in PBS in the contralateral eye, every other week over a period of 2 months.” left out

WI-38 cells = test: Senescence-associated β-galactosidase staining of 5-Aza-dc treated WI-38 cells; type: cell-based, human; conditions: WI-38 fibroblasts, 2 μM; SA-β-Gal staining (FIG. 2C)
Protocol: as §1
as §2, with “5-Aza-2′-deoxycitidine was purchased from TSZ Chem (CAS #2353-33-5), and dissolved in cell culture medium at a concentration of 2 μM. Cells were treated for a period of 48 hours. The medium was then replaced with regular cell culture medium, and the cells were cultured for 5 more days.” left out
The SA-β-gal activity in cultured cells was determined using the Senescence β-Galactosidase Staining Kit (Cell Signaling Technology), according to the manufacturer's instructions. Cells were stained with DAPI afterwards, and percentages of cells that stained positive were calculated with imaging software (Keyence), including 3 fields of view (10×).

patient with dry AMD [5] = test: Human clinical use example: clinical assessments (scotopic response, geographic atrophy) after intravitreal decitabine; type: in vivo
Protocol: A person with bilateral, dry age-related macular degeneration (AMD) is seen in an ophthalmology clinic. They are otherwise healthy. They consent to an experimental study comparing demethylation therapy verses control. At baseline both eyes show a similar level of AMD as evidenced by clinical assessments for visual acuity, size of geographic atrophy as measured by autofluorescence, optical coherence tomography, and scotopic response on electroretinography. The patient is treated with 100 uL of decitabine (20 uM) formulated as a sterile, isotonic, pH buffered solution administered by intravitreal injection in their left eye (active treatment). They receive 100 ul of the same sterile, isotonic, pH buffered solution but without decitabine administered by intravitreal injection in their right eye (control treatment). Immediately following the administration of the active and control treatments, a sample of intravitreal fluid is withdrawn from each eye for baseline measurements of ELOVL2 expression and methylation level. It is observed that ELOVL2 is hypermethylated to a similar extent in both eyes. The levels of ELOVL2 expression are also similar and a low level of expression is observed in both eyes. Both the active and control treatments are continued in the left and right eyes respectively with administrations every other week for 3 months. […] Immediately following the last administration, samples of intravitreal fluid are obtained from both eyes for measurement of ELOVL2 gene expression and methylation. The same clinical assessments for geographic atrophy performed at baseline are repeated for each eye. Significant differences are observed between the eye treated with decitabine compared to control. In the decitabine treated eye, ELOVL2 methylation is reduced by almost 30% and ELOVL2 gene expression is increased also by about 30% compared to baseline. Also, the scotopic response is increased by about 30% over baseline. […] In marked contrast, there is no observable change in the control eye in any of the other parameters. Gene methylation and gene expression and scotopic response values remain similar to those observed at baseline values. The patient returns to the clinic for a follow up visit at 6 months. […] Scotopic response in the control eye remains similar to the baseline value.
A person with dry age-related macular degeneration (AMD) with Geographic Atrophy is seen in an ophthalmology clinic. Their vision as assessed by scotopic response is declining. […] They are otherwise healthy. The patient is treated with 100 uL of decitabine (15 uM) formulated as a sterile, isotonic, pH buffered solution administered by intravitreal injection. […] The decitabine treatment is continued with the same dose administered every 5 weeks over a 12 month period. […] Following the last decitabine administration a sample of vitreous fluid is obtained and tested for ELOVL2 gene methylation and ELOVL2 gene expression. The studies reveal ELOVL2 methylation has decreased by almost 60% (from baseline) and ELOVL2 gene expression is increased by about 50% (over the baseline value).

patient with dry AMD [6] = test: Human clinical use example: tolerability of intravitreal decitabine; type: in vivo
Protocol: as §4, §5

ELOVL2 gene expression = test: Human clinical use example: ELOVL2 gene expression in intravitreal fluid after intravitreal decitabine; type: in vivo
Protocol: as §4, §5

[7] = Geographic Atrophy patient, 100 uL of 15 uM intravitreal every 5 weeks over 12 months
[8] = dry AMD patient, 100 uL of 20 uM intravitreal every other week for 3 months

`Nc1ncn([C@H]2C[C@H](O)[C@@H](CO)O2)c(=O)n1` [5-Aza-dc, 5-Aza-2′-deoxycytidine] was tested, and the ELOVL2 promoter methylation (ELOVL2 promoter [1]) was “reduced”, the “ELOVL2 methylation decreased from baseline” value (ELOVL2 methylation; [7]) was ~60% and the “ELOVL2 methylation reduced compared to baseline” value (ELOVL2 methylation; [8]) was “about 30%”. The ELOVL2 expression (ELOVL2 expression [2]) was “upregulated”, the “scotopic response (ERG)” value (mouse eyes) was “improved” and the “methylation of the ELOVL2 promoter” value (ELOVL2 promoter [3]) was “decreased”. The ELOVL2 expression (ELOVL2 expression [4]) was “upregulated”, the “percentage of senescent cells in culture” value (WI-38 cells) was “lower percentage of senescent cells” and the “geographic atrophy growth by fundus autofluorescence” value (patient with dry AMD [5]; [7]) was “no geographic atrophy growth”. The “scotopic response increased over baseline” value (patient with dry AMD [5]; [7]) was “about 30%”, the “scotopic response improvement over baseline” value (patient with dry AMD [5]; dry AMD patient, 20 uM bi-weekly for 3 months, follow up visit at 6 months) was 20%-30% and the “growth of geographic atrophy by fundus autofluorescence compared to baseline” value (patient with dry AMD [5]; [8]) was “no progression”. For the same compound, the “scotopic response increased over baseline” value (patient with dry AMD [5]; dry AMD patient, 100 uL of 20 uM intravitreal every other week for 3 months, after last administration) was “about 30%”, the tolerability (patient with dry AMD [6]; [7]) was “well tolerated with no adverse effects observed” and the tolerability (patient with dry AMD [6]; [8]) was “equally well tolerated”. The “ELOVL2 gene expression increased over the baseline value” (ELOVL2 gene expression; [7]) was “about 50%” and the “ELOVL2 gene expression increased compared to baseline” value (ELOVL2 gene expression; [8]) was “about 30%”.

— patent US10632211B2, “Demethylation to treat eye disease” (The Regents of the University of California, priority 2018, dated 2020)
